# From ChEMBL document CHEMBL1201862, “PubChem BioAssay data set” (2004)
#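 Results reflect a 48-hour exposure of cells in 96-well plates to compound at five concentrations. Abbreviation: GI50, concentration required for 50% inhibition of growth.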 Calls of active or inactive are those of the source. No stated cut-off is given here; in the data, active = GI50 up to about 1.1 µM and inactive = higher.
# What was measured:
# Assay in all cases: inhibition of tumour cell growth, NCI panel, 48 h
# SR = system: SR
# HOP-92 = system: HOP-92
# SK-MEL-28 = system: SK-MEL-28
# COLO 205 = system: COLO 205
# LXFL 529 = system: LXFL 529
# SW-620 = system: SW-620
# Malme-3M = system: Malme-3M
# NCI-H226 = system: NCI-H226
# HT-29 = system: HT-29
# HOP-18 = system: HOP-18
# EKVX = system: EKVX
# HOP-62 = system: HOP-62
# SF-539 = system: SF-539
# NCI-H23 = system: NCI-H23
# MOLT-4 = system: MOLT-4
# UO-31 = system: UO-31
# BT-549 = system: BT-549
# Hs-578T = system: Hs-578T
# MCF7 = system: MCF7
SMILES,GI50 (SR),GI50 (HOP-92),GI50 (SK-MEL-28),GI50 (COLO 205),GI50 (LXFL 529),GI50 (SW-620),GI50 (Malme-3M),GI50 (NCI-H226),GI50 (HT-29),GI50 (HOP-18),GI50 (EKVX),GI50 (HOP-62),GI50 (SF-539),GI50 (NCI-H23),GI50 (MOLT-4),GI50 (UO-31),GI50 (BT-549),GI50 (Hs-578T),GI50 (MCF7)
CCOC(=O)COc1ccc(OCC(=O)OCC)c2c1C(=O)CCCC2=O,> 100 µM (inactive),> 100 µM (inactive),> 100 µM (inactive),> 100 µM (inactive),> 100 µM (inactive),> 100 µM (inactive),> 100 µM (inactive),> 100 µM (inactive),> 100 µM (inactive),> 100 µM (inactive),> 100 µM (inactive),> 100 µM (inactive),> 100 µM (inactive),> 100 µM (inactive),> 100 µM (inactive),> 100 µM (inactive),,,
COc1ccc(N2C(=O)C3c4[nH]c5ccccc5c4C4CC(C)(C)CC(C)(C)C4C3C2=O)cc1 (stereo unspecified),10.3 µM (inactive),11.9 µM (inactive),14.1 µM (inactive),8.81 µM (inactive),13.3 µM (inactive),20 µM (inactive),16.4 µM (inactive),14 µM (inactive),26 µM (inactive),16.7 µM (inactive),15.9 µM (inactive),16.7 µM (inactive),12.6 µM (inactive),13.8 µM (inactive),14.4 µM (inactive),26 µM (inactive),,,
CC(=O)C1=NN(c2ccccc2)C2(S1)SC(c1ccccc1)(c1ccccc1)c1ccccc12 (stereo unspecified),20.4 µM (inactive),10.4 µM (inactive),> 100 µM (inactive),> 100 µM (inactive),15.2 µM (inactive),99.1 µM (inactive),37.4 µM (inactive),16.1 µM (inactive),95.3 µM (inactive),> 100 µM (inactive),> 100 µM (inactive),34.6 µM (inactive),60.8 µM (inactive),27.2 µM (inactive),27.8 µM (inactive),> 100 µM (inactive),,,
C/C(=N\NC(=S)N1CC2CCC(CC2)C1)c1nccs1,0.0716 µM (active),0.646 µM (active),1.1 µM (active),0.0145 µM (active),0.0201 µM (active),0.11 µM (active),0.435 µM (active),0.479 µM (active),0.07 µM (active),0.327 µM (active),0.0789 µM (active),0.395 µM (active),0.307 µM (active),0.434 µM (active),< 0.0196 µM (active),0.129 µM (active),1.07 µM (active),6.1 µM (inactive),< 0.0258 µM (active)
CC(C)C(=O)NC(=S)Nc1ccc([N+](=O)[O-])cc1C#N,> 100 µM (inactive),> 100 µM (inactive),> 100 µM (inactive),16.8 µM (inactive),> 100 µM (inactive),> 100 µM (inactive),> 100 µM (inactive),25.1 µM (inactive),> 100 µM (inactive),> 100 µM (inactive),63.8 µM (inactive),> 100 µM (inactive),> 100 µM (inactive),> 100 µM (inactive),> 100 µM (inactive),> 100 µM (inactive),,,
CCCCCCCCCCCC(=O)OCCOCCOCCOCCOCCOCc1ccccc1,> 100 µM (inactive),> 100 µM (inactive),> 100 µM (inactive),> 100 µM (inactive),> 100 µM (inactive),> 100 µM (inactive),> 100 µM (inactive),> 100 µM (inactive),> 100 µM (inactive),> 100 µM (inactive),> 100 µM (inactive),> 100 µM (inactive),,> 100 µM (inactive),> 100 µM (inactive),> 100 µM (inactive),,,
C#C[C@@H](CCCC)OC(=O)N[C@H](C)c1ccccc1,21.3 µM (inactive),1.83 µM (inactive),> 100 µM (inactive),2.45 µM (inactive),43.1 µM (inactive),51.9 µM (inactive),,22.5 µM (inactive),40.3 µM (inactive),> 100 µM (inactive),60.7 µM (inactive),> 100 µM (inactive),2.16 µM (inactive),1.91 µM (inactive),27.3 µM (inactive),19 µM (inactive),,,
N#CCCN(c1ccc(/C=N/c2ccc(C(=O)O)cc2)cc1)S(=O)(=O)c1ccccc1,> 100 µM (inactive),> 100 µM (inactive),> 100 µM (inactive),> 100 µM (inactive),> 100 µM (inactive),> 100 µM (inactive),> 100 µM (inactive),> 100 µM (inactive),> 100 µM (inactive),> 100 µM (inactive),> 100 µM (inactive),> 100 µM (inactive),> 100 µM (inactive),> 100 µM (inactive),> 100 µM (inactive),> 100 µM (inactive),,,
C=CCc1ccc(Oc2cc(CC=C)c3c(c2O)O[C@@H](CO)[C@H]3c2ccc(O)c(-c3cc(CC=C)ccc3O)c2)cc1,12.4 µM (inactive),52.2 µM (inactive),25.8 µM (inactive),52 µM (inactive),30.8 µM (inactive),33.9 µM (inactive),> 100 µM (inactive),67.1 µM (inactive),23.4 µM (inactive),> 100 µM (inactive),46.7 µM (inactive),55.7 µM (inactive),40.9 µM (inactive),47.3 µM (inactive),,77.1 µM (inactive),,,
Cc1ccc(NC(=O)CCCC(=O)CC(=O)c2ccc(Br)cc2)cc1,> 100 µM (inactive),> 100 µM (inactive),> 100 µM (inactive),> 100 µM (inactive),> 100 µM (inactive),> 100 µM (inactive),> 100 µM (inactive),> 100 µM (inactive),> 100 µM (inactive),> 100 µM (inactive),> 100 µM (inactive),> 100 µM (inactive),> 100 µM (inactive),> 100 µM (inactive),> 100 µM (inactive),> 100 µM (inactive),,,
CCCCCCCCCCCCCC(=O)OCC(C[As](=O)(O)O)OC(=O)CCCCCCCCCCCCC (stereo unspecified),> 100 µM (inactive),86.5 µM (inactive),> 100 µM (inactive),,> 100 µM (inactive),18.6 µM (inactive),> 100 µM (inactive),> 100 µM (inactive),> 100 µM (inactive),> 100 µM (inactive),> 100 µM (inactive),> 100 µM (inactive),> 100 µM (inactive),> 100 µM (inactive),> 100 µM (inactive),> 100 µM (inactive),,,
CC(C)C1=CC(=O)C(C)(C2=NC(C)(C)CO2)c2ccccc21 (stereo unspecified),60.3 µM (inactive),> 100 µM (inactive),> 100 µM (inactive),> 100 µM (inactive),94.4 µM (inactive),> 100 µM (inactive),> 100 µM (inactive),51.5 µM (inactive),> 100 µM (inactive),34.6 µM (inactive),96.6 µM (inactive),> 100 µM (inactive),> 100 µM (inactive),> 100 µM (inactive),67.3 µM (inactive),61.2 µM (inactive),,,
